Tested on: NOMO1
Test: cell viability relative to DMSO control; higher = less cytotoxic
Conditions: 48 h
Method in brief: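 NOMO1 or SEM (500 cells/well) or P12-Ichikawa (1000 cells/well) leukemia cells were adapted for at least four passages in each medium. They were seeded in 1536-well plates (5 μl) and pin-dosed with library compounds in DMSO over an 11-point threefold series, 47 μM to 0.79 nM. CellTiter-Glo One luminescence was read after 48 h at 37°C. Viability is the per-plate percentage relative to DMSO wells, with cell-free wells as background.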

[1] = HPLM + 10% dialyzed FBS, 0.000781 µM
[2] = HPLM + 10% dialyzed FBS, 0.00234 µM
[3] = HPLM + 10% dialyzed FBS, 0.00702 µM
[4] = HPLM + 10% dialyzed FBS, 0.0211 µM
[5] = HPLM + 10% dialyzed FBS, 0.0632 µM
[6] = HPLM + 10% dialyzed FBS, 0.19 µM
[7] = HPLM + 10% dialyzed FBS, 0.569 µM
[8] = HPLM + 10% dialyzed FBS, 1.71 µM
[9] = HPLM + 10% dialyzed FBS, 5.12 µM
[10] = HPLM + 10% dialyzed FBS, 15.4 µM
[11] = HPLM + 10% dialyzed FBS, 46.1 µM
[12] = RPMI 5 mM glucose + 10% FBS, 0.000781 µM
[13] = RPMI 5 mM glucose + 10% FBS, 0.00234 µM
[14] = RPMI 5 mM glucose + 10% FBS, 0.00702 µM
[15] = RPMI 5 mM glucose + 10% FBS, 0.0211 µM
[16] = RPMI 5 mM glucose + 10% FBS, 0.0632 µM
[17] = RPMI 5 mM glucose + 10% FBS, 0.19 µM
[18] = RPMI 5 mM glucose + 10% FBS, 0.569 µM
[19] = RPMI 5 mM glucose + 10% FBS, 1.71 µM
[20] = RPMI 5 mM glucose + 10% FBS, 5.12 µM
[21] = RPMI 5 mM glucose + 10% FBS, 15.4 µM
[22] = RPMI 5 mM glucose + 10% FBS, 46.1 µM
[23] = RPMI 5 mM glucose + 10% dialyzed FBS, 0.000781 µM
[24] = RPMI 5 mM glucose + 10% dialyzed FBS, 0.00234 µM
[25] = RPMI 5 mM glucose + 10% dialyzed FBS, 0.00702 µM
[26] = RPMI 5 mM glucose + 10% dialyzed FBS, 0.0211 µM
[27] = RPMI 5 mM glucose + 10% dialyzed FBS, 0.0632 µM
[28] = RPMI 5 mM glucose + 10% dialyzed FBS, 0.19 µM
[29] = RPMI 5 mM glucose + 10% dialyzed FBS, 0.569 µM
[30] = RPMI 5 mM glucose + 10% dialyzed FBS, 1.71 µM
[31] = RPMI 5 mM glucose + 10% dialyzed FBS, 5.12 µM
[32] = RPMI 5 mM glucose + 10% dialyzed FBS, 15.4 µM
[33] = RPMI 5 mM glucose + 10% dialyzed FBS, 46.1 µM

Cn1c(=O)c2c(ncn2C)n(C)c1=O.O=C(O)CC(O)(CC(=O)O)C(=O)O
cell viability [1]: 118%
cell viability [2]: 106%
cell viability [3]: 123%
cell viability [4]: 133%
cell viability [5]: 105%
cell viability [6]: 114%
cell viability [7]: 100%
cell viability [8]: 104%
cell viability [9]: 98.9%
cell viability [10]: 86%
cell viability [11]: 109%
cell viability [12]: 95.4%
cell viability [13]: 98.9%
cell viability [14]: 107%
cell viability [15]: 101%
cell viability [16]: 115%
cell viability [17]: 104%
cell viability [18]: 106%
cell viability [19]: 106%
cell viability [20]: 101%
cell viability [21]: 91.2%
cell viability [22]: 93.8%
cell viability [23]: 93.8%
cell viability [24]: 113%
cell viability [25]: 109%
cell viability [26]: 106%
cell viability [27]: 114%
cell viability [28]: 107%
cell viability [29]: 119%
cell viability [30]: 98.6%
cell viability [31]: 97.3%
cell viability [32]: 89.2%
cell viability [33]: 85.4%

COc1cc2nc(N(C)CCCNC(=O)C3CCCO3)nc(N)c2cc1OC (stereo unspecified)
cell viability [1]: 63.4%
cell viability [2]: 82.7%
cell viability [3]: 99.4%
cell viability [4]: 77.8%
cell viability [5]: 96.3%
cell viability [6]: 90.6%
cell viability [7]: 79.7%
cell viability [8]: 89.7%
cell viability [9]: 31.3%
cell viability [10]: 28%
cell viability [11]: 20%
cell viability [12]: 70.7%
cell viability [13]: 74%
cell viability [14]: 71.9%
cell viability [15]: 75.4%
cell viability [16]: 73.2%
cell viability [17]: 81.8%
cell viability [18]: 72.1%
cell viability [19]: 71.9%
cell viability [20]: 33.2%
cell viability [21]: 36%
cell viability [22]: 10%
cell viability [23]: 61.6%
cell viability [24]: 76.5%
cell viability [25]: 68.8%
cell viability [26]: 85%
cell viability [27]: 77.6%
cell viability [28]: 77.9%
cell viability [29]: 75.4%
cell viability [30]: 87.4%
cell viability [31]: 51.9%
cell viability [32]: 61.9%
cell viability [33]: 15.1%

C/C=C1\NC(=O)[C@H]2CSSCC/C=C\[C@H](CC(=O)N[C@H](C(C)C)C(=O)N2)OC(=O)[C@H](C(C)C)NC1=O
cell viability [1]: 102%
cell viability [2]: 119%
cell viability [3]: 119%
cell viability [4]: 105%
cell viability [5]: 17.7%
cell viability [6]: 4.68%
cell viability [7]: 4.81%
cell viability [8]: 4.43%
cell viability [9]: 5.27%
cell viability [10]: 4.81%
cell viability [11]: 4.24%
cell viability [12]: 99.6%
cell viability [13]: 97.5%
cell viability [14]: 104%
cell viability [15]: 94.9%
cell viability [16]: 18.1%
cell viability [17]: 4.23%
cell viability [18]: 3.46%
cell viability [19]: 3.14%
cell viability [20]: 2.93%
cell viability [21]: 2.29%
cell viability [22]: 2.53%
cell viability [23]: 93.7%
cell viability [24]: 90.3%
cell viability [25]: 103%
cell viability [26]: 108%
cell viability [27]: 30.1%
cell viability [28]: 4.52%
cell viability [29]: 4.41%
cell viability [30]: 3.52%
cell viability [31]: 3.86%
cell viability [32]: 1.77%
cell viability [33]: 3.47%

OC(=O)C1=CC=C(NC2=NC3=C(C\N=C(/C4=CC(=CC=C34)Cl)C5=C(F)C=CC=C5F)C=N2)C=C1
cell viability [1]: 87.2%
cell viability [2]: 96.6%
cell viability [3]: 104%
cell viability [4]: 122%
cell viability [5]: 97.9%
cell viability [6]: 103%
cell viability [7]: 87.6%
cell viability [8]: 45.2%
cell viability [9]: 44%
cell viability [10]: 59.1%
cell viability [11]: 72%
cell viability [12]: 81.9%
cell viability [13]: 96.8%
cell viability [14]: 80%
cell viability [15]: 91.3%
cell viability [16]: 90.4%
cell viability [17]: 79.9%
cell viability [18]: 82.3%
cell viability [19]: 32.8%
cell viability [20]: 37.8%
cell viability [21]: 56.4%
cell viability [22]: 56.4%
cell viability [23]: 93.2%
cell viability [24]: 95.7%
cell viability [25]: 89.2%
cell viability [26]: 94.1%
cell viability [27]: 89.8%
cell viability [28]: 97.8%
cell viability [29]: 77.3%
cell viability [30]: 35%
cell viability [31]: 38.8%
cell viability [32]: 55.9%
cell viability [33]: 61.4%

Cc1ccc(NC(=O)c2ccc(CN3CCN(C)CC3)cc2)cc1Nc1nc(-c2cccnc2)cs1
cell viability [1]: 103%
cell viability [2]: 98.1%
cell viability [3]: 99.3%
cell viability [4]: 105%
cell viability [5]: 96.6%
cell viability [6]: 89.3%
cell viability [7]: 82.6%
cell viability [8]: 75.3%
cell viability [9]: 76.8%
cell viability [10]: 73%
cell viability [11]: 75.2%
cell viability [12]: 95.9%
cell viability [13]: 104%
cell viability [14]: 93%
cell viability [15]: 94.9%
cell viability [16]: 99.4%
cell viability [17]: 102%
cell viability [18]: 89.3%
cell viability [19]: 108%
cell viability [20]: 107%
cell viability [21]: 106%
cell viability [22]: 74.6%
cell viability [23]: 97.2%
cell viability [24]: 102%
cell viability [25]: 98.6%
cell viability [26]: 104%
cell viability [27]: 93.4%
cell viability [28]: 111%
cell viability [29]: 87.1%
cell viability [30]: 86.1%
cell viability [31]: 85.9%
cell viability [32]: 78.8%
cell viability [33]: 74.3%

COC[C@H]1OC(=O)C2=COC3=C2[C@@]1(C)\C4=C(C5CCC(=O)[C@@]5(C)C[C@H]4OC(C)=O)/C3=O (stereo partly specified)
cell viability [1]: 84.5%
cell viability [2]: 111%
cell viability [3]: 107%
cell viability [4]: 36.5%
cell viability [5]: 111%
cell viability [6]: 114%
cell viability [7]: 104%
cell viability [8]: 114%
cell viability [9]: 108%
cell viability [10]: 95%
cell viability [11]: 102%
cell viability [12]: 90.1%
cell viability [13]: 92%
cell viability [14]: 92.2%
cell viability [15]: 19.6%
cell viability [16]: 98.7%
cell viability [17]: 98.3%
cell viability [18]: 100%
cell viability [19]: 91.8%
cell viability [20]: 93.6%
cell viability [21]: 91.8%
cell viability [22]: 107%
cell viability [23]: 82%
cell viability [24]: 85.2%
cell viability [25]: 95.7%
cell viability [26]: 47.2%
cell viability [27]: 93.3%
cell viability [28]: 94.1%
cell viability [29]: 90.9%
cell viability [30]: 94.6%
cell viability [31]: 91.5%
cell viability [32]: 87.5%
cell viability [33]: 87.6%

NC1(Cc2ccc(Cl)cc2)CCN(c2ncnc3[nH]ccc23)CC1
cell viability [1]: 97.7%
cell viability [2]: 93.7%
cell viability [3]: 89.9%
cell viability [4]: 106%
cell viability [5]: 92.9%
cell viability [6]: 105%
cell viability [7]: 116%
cell viability [8]: 81.9%
cell viability [9]: 82%
cell viability [10]: 45.6%
cell viability [11]: 29.4%
cell viability [12]: 106%
cell viability [13]: 102%
cell viability [14]: 88.3%
cell viability [15]: 101%
cell viability [16]: 97.4%
cell viability [17]: 90.5%
cell viability [18]: 85.5%
cell viability [19]: 90.6%
cell viability [20]: 74.5%
cell viability [21]: 32.6%
cell viability [22]: 16.3%
cell viability [23]: 102%
cell viability [24]: 92.8%
cell viability [25]: 94.7%
cell viability [26]: 90.2%
cell viability [27]: 102%
cell viability [28]: 84.9%
cell viability [29]: 87.8%
cell viability [30]: 80.9%
cell viability [31]: 67.3%
cell viability [32]: 33%
cell viability [33]: 17.7%
